Laboratory results taken from ChEMBL document CHEMBL4219208, “5'-Hydroxy-5'-homoaristeromycin: Synthesis and antiviral properties” (Bioorg Med Chem Lett, 2018).
The source made the active and inactive calls. The rule behind the calls is not given here.

Columns and labels:
Hepatitis B virus = assay: Antiviral activity against Hepatitis B virus ayw infected in human HepG2.2.15 cells; type: functional, organism-based, Hepatitis B virus subtype ayw
[1] = Cytotoxicity against human HepG2.2.15 cells assessed as reduction in cell viability; type: cell-based, HepG2 2.2.15
Poliovirus 1 = assay: Antiviral activity against Polio virus type 1 infected in monkey LLC-MK2 clone 7.1 cells; type: functional, organism-based
Yellow fever virus = assay: Antiviral activity against Yellow fever virus 17D infected in African green monkey Vero cells; type: functional, organism-based
LLC-MK2 = assay: Cytotoxicity against monkey LLC-MK2 clone 7.1 cells assessed as reduction in cell viability; type: cell-based, Macaca mulatta; details: rhesus monkey
SARS-CoV = assay: Antiviral activity against SARS coronavirus Toronto-2 infected in African green monkey Vero E6 cells; type: functional, organism-based; details: Severe acute respiratory syndrome-related coronavirus, Vero C1008
Vero C1008 = assay: Cytotoxicity against African green monkey Vero E6 cells assessed as reduction in cell viability; type: cell-based; details: chlorocebus sabaeus
Human orthopneumovirus = assay: Antiviral activity against Respiratory syncytial virus A infected in human Hep2 cells; type: functional, organism-based; details: type A
HEp-2 = assay: Cytotoxicity against human Hep2 cells assessed as reduction in cell viability; type: cell-based
Hepatitis C virus = assay: Antiviral activity against Hepatitis C virus Con1 infected in human Huh-Luc-Neo cells; type: functional, organism-based; details: Hepacivirus hominis; isolate Con1
[2] = Cytotoxicity against human Huh-Luc-Neo cells assessed as reduction in cell viability; type: cell-based
Human alphaherpesvirus 1 = assay: Antiviral activity against Herpes simplex virus 1 E-377 infected in HFF; type: functional, organism-based
Human alphaherpesvirus 2 = assay: Antiviral activity against Herpes simplex virus 2 G infected in HFF; type: functional, organism-based
Vaccinia virus = assay: Antiviral activity against Vaccinia virus Copenhagen infected in HFF cells; type: functional, organism-based; details: Orthopoxvirus vaccinia
dengue virus type 2 = assay: Antiviral activity against Dengue virus type 2 New guinea infected in African green monkey Vero 76 cells; type: functional, organism-based
Vero 76 = assay: Cytotoxicity against African green monkey Vero 76 cells assessed as reduction in cell viability; type: cell-based; details: chlorocebus sabaeus
Rift Valley fever virus = assay: Antiviral activity against Rift Valley fever virus MP-12 infected in African green monkey Vero 76 cells; type: functional, organism-based
[3] = test system: Venezuelan equine encephalitis virus; assay: Antiviral activity against Venezuelan equine encephalitis virus TC-83 infected in African green monkey Vero cells; type: functional, organism-based
Vero = assay: Cytotoxicity against African green monkey Vero cells assessed as reduction in cell viability; type: cell-based; details: chlorocebus sabaeus
Influenza A virus = assay: Antiviral activity against Influenza A virus (A/California/07/2009(H1N1)) infected in MDCK cells; type: functional, organism-based
MDCK = assay: Cytotoxicity against MDCK cells assessed as reduction in cell viability; type: cell-based, Canis lupus familiaris; details: dog
West Nile virus = assay: Antiviral activity against West Nile virus KERN 515/WN02 infected in MDCK cells; type: functional, organism-based
Human betaherpesvirus 5 = assay: Antiviral activity against Human cytomegalovirus AD169 infected in HFF; type: functional, organism-based; details: Human betaherpesvirus 5, AD169, HFF
[4] = Cytotoxicity against HFF assessed as reduction in cell viability; type: cell-based; details: human, HFF cells

SMILES | EC50 (Hepatitis B virus) [µM] | CC50 [1] [µM] | Activity (Poliovirus 1) | Activity (LLC-MK2) | Activity (SARS-CoV) | Activity (Vero C1008) | Activity (Human orthopneumovirus) | Activity (HEp-2) | Activity (Hepatitis C virus) | Activity [2] | Activity (Human alphaherpesvirus 1) | Activity (Human alphaherpesvirus 2) | Activity (Vaccinia virus) | Activity (dengue virus type 2) | Activity (Vero 76) | Activity (Rift Valley fever virus) | Activity [3] | Activity (Vero) | Activity (Influenza A virus) | Activity (MDCK) | other results
Nc1ncnc2c1ncn2[C@@H]1C[C@H]([C@H](O)CO)[C@@H](O)[C@H]1O | 7.1 | > 100 | inactive | Non-Toxic | inactive | Non-Toxic | inactive | Non-Toxic | inactive | Non-Toxic | inactive | inactive | inactive | inactive | Non-Toxic | inactive | inactive | Non-Toxic | inactive | Non-Toxic | Activity (Yellow fever virus): inactive; Activity (West Nile virus): inactive
Nc1ncnc2c1ncn2[C@@H]1C[C@H]([C@@H](O)CO)[C@@H](O)[C@H]1O | 7.4 | > 100 | inactive | Non-Toxic | inactive | Non-Toxic | inactive | Non-Toxic | inactive | Non-Toxic | inactive | inactive | inactive | inactive | Non-Toxic | inactive | inactive | Non-Toxic | inactive | Non-Toxic | EC50 (Human betaherpesvirus 5): 0.72 µM; CC50 [4]: > 300 µM; Activity (West Nile virus): inactive
